Our source for the IC50 and GI50 values is US20260138959A1, “QUINAZOLINE DERIVATIVE COMPOUND AND USE THEREOF” (VORONOI INC., priority 2021, published 2026).

One assay concerns the target T1, human PDGFR-β(wt) (Homo sapiens, UniProt P09619).
T1 construct: purchased Signalchem P13-11G
The assay is described as follows: Enzyme inhibitory activity, ADP-Glo kinase assay, PDGFR-β(wt). It counts as biochemical. The settings on record: read-out: PDGFR-β (IC50 class). In a few lines: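 Purified human kinases incubated with ATP and substrate 1–2 h at 25 °C in 40 mM Tris-HCl pH 7.4, 20 mM MgCl2, BSA, DTT, compound over 12 concentrations (10–0.00005645 μM final). ADP formed quantified by ADP-Glo luminescence; IC50 from inhibition versus DMSO control, reported in bins A–D.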
On the technique in general: In ADP-Glo the light output rises with the ADP produced.

The test system of a further assay is Ba/F3-c-KIT(D816V). The experiment in a line: Proliferation inhibitory activity on Ba/F3 cell (CellTiter-Glo, 72 hours), c-KIT(D816V). Type of assay: cell-based. The settings on record: Mus musculus, BaF3, read-out: Ba/F3 (nM) c-KIT (D816V) (GI50 class). In a few lines: (§1)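 Cells seeded (3×10^3/well), then twelve 3-fold compound concentrations added to 0.00005-10 μM final alongside DMSO control. Plates incubated 72 h at 37 °C. CellTiter-Glo reagent mixed in for ~10 min at room temperature before reading; GI50 fitted from vehicle-normalised data.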
A general note: ATP-based viability assays read luminescence as a measure of living cells.

For a further assay, the system named is c-KIT V560G/D816V. The experiment in a line: Proliferation inhibitory activity on Ba/F3 cell (CellTiter-Glo, 72 hours), c-KIT V560G/D816V. It counts as cell-based. The settings on record: Mus musculus, BaF3, c-KIT V560G/D816V cells, read-out: Cell (nM) c-KIT V560G/D816V (GI50 class). An outline of the steps:
as §1

Another assay concerns c-KIT D814Y. The experiment in a line: Proliferation inhibitory activity on Ba/F3 cell (CellTiter-Glo, 72 hours), c-KIT D814Y. It counts as cell-based. The settings on record: Mus musculus, BaF3, c-KIT D814Y cells, read-out: Cell (nM) c-KIT D814Y (GI50 class). The protocol:
Ba/F3-TEL-PDGFRα(WT), Ba/F3-TEL-PDGFβ(WT), Ba/F3-c-KIT(D816V) (Kyinno, #KC-0138), c-KIT V560G/D816V, c-KIT D814Y were seeded at 3×10^3/100 μl/well in a clear bottom white 96-well plate. A culture solution containing compounds of 12 concentrations (0.00001-2 mM) serially diluted in 3 folds and the DMSO control group was added at 0.5 μl/well each to a final concentration of 0.00005-10 μM, and then incubated in a CO2 incubator at 37° C. for 72 hours. After 72 hours, the plate treated with the compound was taken out, CellTiter-Glo® Assay (Promega) solution was treated with 100 μl/well, followed by mixing well. After mixing well for about 10 minutes at room temperature, […] was measured using a microplate reader. The data were presented as percentages in proportion to treated cells based on the vehicle, GI50 (nM) values were calculated using GraphPad Prism 8.3.0 (GraphPad software Inc., San Diego).
The inhibitory activities of Ba/F3 expressing PDGFR-α, PDGFR-β, c-KIT(D816V), c-KIT V560G/D816V, and c-KIT D814Y measured as described above were measured and shown in Table 7 below (A: GI50≤200 nM; B: 200 nM<GI50≤500 nM; C: GI50>500 nM).

The next assay concerns Ba/F3-TEL-PDGFβ(WT). The assay is described as follows: Proliferation inhibitory activity on Ba/F3 cell (CellTiter-Glo, 72 hours), PDGFR-β. Type of assay: cell-based. The settings on record: Mus musculus, BaF3, read-out: Ba/F3 (nM) Tel-PDGFRβ (GI50 class). An outline of the steps:
as §1

pIC50: −log10 of the molar value.

T1 sequence (P09619 33-1106): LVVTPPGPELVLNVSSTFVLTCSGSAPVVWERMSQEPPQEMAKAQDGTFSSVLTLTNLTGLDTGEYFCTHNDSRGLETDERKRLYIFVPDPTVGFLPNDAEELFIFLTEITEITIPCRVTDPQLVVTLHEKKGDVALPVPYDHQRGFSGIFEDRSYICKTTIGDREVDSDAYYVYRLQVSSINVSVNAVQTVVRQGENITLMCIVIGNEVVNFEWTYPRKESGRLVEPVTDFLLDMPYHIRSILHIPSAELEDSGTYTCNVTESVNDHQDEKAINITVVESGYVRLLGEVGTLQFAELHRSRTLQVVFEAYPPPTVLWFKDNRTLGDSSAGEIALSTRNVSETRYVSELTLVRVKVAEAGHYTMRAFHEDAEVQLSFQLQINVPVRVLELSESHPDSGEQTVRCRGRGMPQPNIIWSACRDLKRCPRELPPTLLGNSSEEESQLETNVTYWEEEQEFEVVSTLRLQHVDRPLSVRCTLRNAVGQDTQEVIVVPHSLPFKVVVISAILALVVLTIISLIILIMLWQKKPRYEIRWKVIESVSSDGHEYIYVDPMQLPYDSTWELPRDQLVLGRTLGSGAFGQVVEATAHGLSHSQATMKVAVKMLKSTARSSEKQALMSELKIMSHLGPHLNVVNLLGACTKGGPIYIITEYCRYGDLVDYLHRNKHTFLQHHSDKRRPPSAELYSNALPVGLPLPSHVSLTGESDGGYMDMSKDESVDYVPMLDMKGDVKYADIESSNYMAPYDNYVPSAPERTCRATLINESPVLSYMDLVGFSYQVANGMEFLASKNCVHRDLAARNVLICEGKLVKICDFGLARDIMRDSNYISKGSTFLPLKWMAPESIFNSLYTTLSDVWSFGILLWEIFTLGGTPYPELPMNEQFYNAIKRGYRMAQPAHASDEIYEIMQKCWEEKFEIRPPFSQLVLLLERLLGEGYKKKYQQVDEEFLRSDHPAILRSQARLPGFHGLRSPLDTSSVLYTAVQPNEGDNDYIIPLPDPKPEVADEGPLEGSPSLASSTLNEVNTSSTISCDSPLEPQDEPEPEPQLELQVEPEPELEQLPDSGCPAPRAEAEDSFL

The term pIC50 denotes the IC50 on a negative log10 scale, so that one unit is a factor of ten. `CCN1CC[C@@H](COc2cc3ncnc(-c4ccc(NC(=O)Cc5ccc(C(F)(F)F)cc5)cc4)c3cc2OC)C1` [Example 40, (R)-N-(4-(7-((1-ethylpyrrolidin-3-yl)methoxy)-6-methoxyquinazolin-4-yl)phenyl)-2-(4-(trifluoromethyl)phenyl)acetamide]: at human PDGFR-β(wt), the pIC50 was at least 7.30. The GI50 with Ba/F3-c-KIT(D816V), in the assay on c-KIT V560G/D816V and in the assay with c-KIT D814Y was at most 200 nM each time.

Regarding `CCN1CCC(COc2cc3ncnc(-c4ccc(NC(=O)Cc5ccc(C(F)(F)F)cc5)cc4)c3cc2OC)CC1` [Example 4, N-(4-(7-((1-ethylpiperidin-4-yl)methoxy)-6-methoxyquinazolin-4-yl)phenyl)-2-(4-(trifluoromethyl)phenyl)acetamide], the pIC50 at human PDGFR-β(wt) was at least 7.30. Also, the GI50 with Ba/F3-TEL-PDGFβ(WT), in the assay with Ba/F3-c-KIT(D816V), in the assay with c-KIT V560G/D816V and in the assay on c-KIT D814Y was at most 200 nM each time.

Regarding `COc1cc2c(-c3ccc(NC(=O)Cc4ccc(C(F)(F)F)cc4)cc3)ncnc2cc1OCCn1cccn1` [Example 30, N-(4-(7-(2-(1H-pyrazol-1-yl)ethoxy)-6-methoxyquinazolin-4-yl)phenyl)-2-(4-(trifluoromethyl)phenyl)acetamide], at human PDGFR-β(wt), the pIC50 was at least 7.30. Further, the GI50 in the assay on Ba/F3-c-KIT(D816V), in the assay on c-KIT V560G/D816V and in the assay on c-KIT D814Y was at most 200 nM each time.

Turning to `CCN1CCCC(COc2cc3ncnc(-c4ccc(NC(=O)Cc5ccc(C(F)(F)F)cc5)cc4)c3cc2OC)C1` (centres unmarked) [Example 18, N-(4-(7-((1-ethylpiperidin-3-yl)methoxy)-6-methoxyquinazolin-4-yl)phenyl)-2-(4-(trifluoromethyl)phenyl)acetamide], the GI50 in the assay with Ba/F3-TEL-PDGFβ(WT), in the assay on Ba/F3-c-KIT(D816V), with c-KIT V560G/D816V and in the assay with c-KIT D814Y was at most 200 nM in each case.

With `COCCN1CCC(COc2cc3ncnc(-c4ccc(NC(=O)Cc5ccc(C(F)(F)F)cc5)cc4)c3cc2OC)CC1` [Example 43, N-(4-(6-methoxy-7-((1-(2-methoxyethyl)piperidin-4-yl)methoxy)quinazolin-4-yl)phenyl)-2-(4-(trifluoromethyl)phenyl)acetamide], at human PDGFR-β(wt), the pIC50 is at least 7.30. For the same compound, the GI50 in the assay with Ba/F3-c-KIT(D816V), in the assay on c-KIT V560G/D816V and with c-KIT D814Y was at most 200 nM throughout.

Regarding `COc1cc2c(-c3ccc(NC(=O)Cc4ccc(C(F)(F)F)cc4)cc3)ncnc2cc1OCCCN1C[C@H]2C[C@@H]1CN2C` [Example 31, N-(4-(6-methoxy-7-(3-((1R,4R)-5-methyl-2,5-diazabicyclo[2.2.1]heptane-2-yl)propoxy)quinazolin-4-yl)phenyl)-2-(4-(trifluoromethyl)phenyl)acetamide], at human PDGFR-β(wt), the negative-log IC50 (pIC50) is at least 7.30. Besides, the GI50 in the assay with Ba/F3-c-KIT(D816V), with c-KIT V560G/D816V and in the assay with c-KIT D814Y was at most 200 nM throughout.

For `COc1cc2ncnc(-c3ccc(NC(=O)Cc4ccc(C(F)(F)F)cc4)cc3)c2cc1OCCN1CCN(C)CC1` [Example 131, N-(4-(7-methoxy-6-(2-(4-methylpiperazin-1-yl)ethoxy)quinazolin-4-yl)phenyl)-2-(4-(trifluoromethyl)phenyl)acetamide], the pIC50 at human PDGFR-β(wt) was at least 7.30. Further, the GI50 with Ba/F3-c-KIT(D816V) was at most 200 nM; in the assay on c-KIT V560G/D816V it was 200 to 500 nM; with c-KIT D814Y it was 200 to 500 nM.

Consider `CCN1CC(Oc2cc3c(-c4ccc(NC(=O)Cc5ccc(C(F)(F)F)cc5)cc4)ncnc3cc2OC)C1` [Example 144, N-(4-(6-((1-ethylazetidin-3-yl)oxy)-7-methoxyquinazolin-4-yl)phenyl)-2-(4-(trifluoromethyl)phenyl)acetamide], for which the results for the GI50 with Ba/F3-c-KIT(D816V), with c-KIT V560G/D816V and with c-KIT D814Y were at most 200 nM, 200 to 500 nM and at most 200 nM, respectively.
